In ChEMBL document CHEMBL6134863, “Novel Mitochondria-Targeted Asymmetric Heptamethine Cyanine Dye for Cancer Targeted NIR Imaging and Potent Necrosis and Senescence Induction with Prolonged Retention” (J Med Chem, 2025):
Values belong to the compound of their own block, whether it stands above or below them. Active and inactive are the calls of the source. The calls are words filed in the database; no cut-off is given here.

Tests used:
[1] = Distribution coefficient, logD of compound; assay type: physicochemical; conditions: octanol/water
[2] = Partition coefficient, logP of compound; assay type: physicochemical; conditions: octanol/water
[3] = Drug accumulation in tumor to muscle of BALB/c mouse implanted with mouse 4T1 cells at 0.5 mg/kg, iv measured at 4 to 168 hrs; assay type: ADME, organism-based; conditions: in vivo, time 4-168 hrs
[4] = Solubility of compound in DMSO-H2O; assay type: physicochemical
[5] = Photostability of compound in DMSO-H2O incubated for 1 hr irradiated with deuterium lamp by absorbance based analysis; assay type: physicochemical; conditions: read-out: Stability
NCI-H226 = test: Cytotoxicity against human NCI-H226 assessed as decrease in cell viability up to 10 uM incubated for 24 hrs by CCK-8 assay; assay type: functional, cell-based
[6] = Drug uptake in human NCI-H226 cells assessed as increase in red fluorescence intensity at 5 uM incubated for 30 mins by CY7 staining based microscopic analysis; assay type: ADME, cell-based; conditions: nci-h226, 0.5 h
[7] = Drug uptake in mouse 4T1 cells assessed as increase in red fluorescence intensity at 5 uM incubated for 30 mins by CY7 staining based microscopic analysis; assay type: ADME, cell-based; conditions: 4t1, 0.5 h
[8] = Drug uptake in mouse 4T1 cells assessed as increase in green fluorescence intensity at 5 uM incubated for 30 mins by F-actin staining staining based microscopic analysis; assay type: ADME, cell-based; conditions: 4t1, 0.5 h
[9] = Drug uptake in human NCI-H226 cells assessed as increase in green fluorescence intensity at 5 uM incubated for 30 mins by F-actin staining staining based microscopic analysis; assay type: ADME, cell-based; conditions: nci-h226, 0.5 h
[10] = Ratio of drug level in tumor to muscle of BALB/c mouse implanted with mouse 4T1 cells at 0.5 mg/kg, iv measured at 12 to 24 hrs; assay type: ADME, organism-based; conditions: in vivo, time 12-24 hrs
[11] = Antioxidant activity of compound in presence of H2O2-; assay type: functional
NCI-H250 = test: Antitumor activity against human […] cells xenografted in BALB/c mouse assessed as tumor growth inhibition 0.5 mg/kg, iv measured for 5 days; assay type: functional, organism-based; conditions: time 5.0 day
[12] = Antioxidant activity of compound in presence of ROS; assay type: functional
[13] = Drug accumulation in BALB/c mouse tumor xenografted with human NCI-H520 cells assessed as increase in fluorescence intensity at 0.5 mg/kg, iv measured at 96 hrs by imaging based analysis; assay type: ADME, organism-based, Neoplasm; conditions: in vivo
[14] = Antioxidant activity of compound in presence of HCO3-; assay type: functional
[15] = Antioxidant activity of compound in presence of SO4; assay type: functional
[16] = Antioxidant activity of compound in presence of OH; assay type: functional
[17] = Antioxidant activity of compound in presence of ONOO-; assay type: functional
[18] = Antioxidant activity of compound in presence of Glutathione; assay type: functional
[19] = Drug localization in mitochondria of human NCI-H226 cell by MitoTracker Red based NIR confocal microscopic analysis; assay type: ADME
[20] = Drug uptake in human NCI-H226 cells assessed as increase in fluorescence intensity incubated for 24 hrs by fluorescence based microscopic analysis; assay type: ADME, cell-based; conditions: nci-h226, 24 h
[21] = Antioxidant activity of compound in presence of Fe3+; assay type: functional
[22] = Antioxidant activity of compound in presence of RNS; assay type: functional
[23] = Antioxidant activity of compound in presence of TBHP; assay type: functional
[24] = Antioxidant activity of compound in presence of CO3; assay type: functional
NIH3T3 = test: Cytotoxicity against mouse 3T3 cells assessed as decrease in cell viability up to 5 uM incubated for 24 hrs by CCK-8 assay; assay type: toxicity, cell-based; conditions: nih3t3, 24 h
[25] = Antioxidant activity of compound in presence of HSO3-; assay type: functional
[26] = Antioxidant activity of compound in presence of NH4+; assay type: functional
[27] = Antioxidant activity of compound in presence of Ca2+; assay type: functional
[28] = Antioxidant activity of compound in presence of RSS; assay type: functional
[29] = Stability of compound in DMSO-H2O incubated for 150 mins by absorbance based analysis; assay type: physicochemical; conditions: 2.5 h
[30] = Antioxidant activity of compound in presence of Cl-; assay type: functional
[31] = Antioxidant activity of compound in presence of […]; assay type: functional
[32] = Antioxidant activity of compound in presence of NO2; assay type: functional
[33] = Cytotoxicity against human Primary lung fibroblast assessed as decrease in cell viability up to 5 uM incubated for 24 hrs by CCK-8 assay; assay type: toxicity, cell-based
[34] = Antioxidant activity of compound in presence of Br-; assay type: functional
[35] = Antioxidant activity of compound in presence of ClO-; assay type: functional
[36] = Antioxidant activity of compound in presence of L-Cysteine; assay type: functional
[37] = Antioxidant activity of compound in presence of HCHO; assay type: functional
[38] = Cytotoxicity against human Primary lung fibroblast assessed as decrease in cell viability up to 10 uM incubated for 24 hrs by CCK-8 assay; assay type: toxicity, cell-based

logD [1]: 3.22
logP [2]: 5.6
Compound: CC1(C)C(/C=C/C2=C(Cl)C(=C/C=C3/N(Cc4ccc(C(=O)O)cc4)c4ccc(N)cc4C3(C)C)/CCC2)=[N+](Cc2ccc(C(=O)O)cc2)c2ccc(N)cc21

logD [1]: 3.78
logP [2]: 6.92
Compound: CC(C)(C)OC(=O)Nc1ccc2c(c1)C(C)(C)C(/C=C/C1=C(Cl)C(=C/C=C3/N(Cc4ccc(C(=O)O)cc4)c4ccc(NC(=O)OC(C)(C)C)cc4C3(C)C)/CCC1)=[N+]2Cc1ccc(C(=O)O)cc1

Drug uptake [3]: Active
logD [1]: 5.6
logP [2]: 7.23
Compound: COC(=O)CNC(=O)c1ccc(CN2/C(=C/C=C3\CCCC(/C=C/C4=[N+](Cc5ccc(C(=O)NCC(=O)OC)cc5)c5ccc6ccccc6c5C4(C)C)=C3Cl)C(C)(C)c3c2ccc2ccccc32)cc1.[Br-]

logD [1]: 3.79
logP [2]: 7.26
solubility [4]: 170 µg/mL
Compound: CC1(C)C(/C=C/C=C/C=C/C=C2/N(CCCOc3ccc(C(=O)O)cc3)c3ccc4ccccc4c3C2(C)C)=[N+](CCCOc2ccc(C(=O)O)cc2)c2ccc3ccccc3c21.[Br-]

remaining at 1 h [5]: 95.2%
Compound: CC1(C)C(/C=C/C=C/C=C/C=C2\N(CCCCS(=O)(=O)O)c3ccc4ccccc4c3C2(C)C)=[N+](CCCCS(=O)(=O)[O-])c2ccc3ccccc3c21 [INDOCYANINE GREEN]
Activity (NCI-H226): Active

Drug uptake [6]: Not_active
Drug uptake [3]: Active
logD [1]: 4.24
Drug uptake [7]: Not_active
logP [2]: 5.89
Drug uptake [8]: Not_active
Drug uptake [9]: Not_active
Compound: CCN1/C(=C/C=C2\CCCC(/C=C/C3=[N+](Cc4ccc(C(=O)O)cc4)c4ccccc4C3(C)C)=C2Cl)C(C)(C)c2ccccc21.[Br-]

Drug uptake [3]: Active
logD [1]: 4.19
logP [2]: 7.24
Compound: CC1(C)C(/C=C/C2=C(Cl)C(=C/C=C3/N(CCCOc4ccc(C(=O)O)cc4)c4ccc5ccccc5c4C3(C)C)/CCC2)=[N+](CCCOc2ccc(C(=O)O)cc2)c2ccc3ccccc3c21.[Br-]

Drug uptake [6]: Active
Drug uptake [3]: Active
Ratio [10]: > 5
logD [1]: 4.48
Drug uptake [7]: Active
logP [2]: 6.17
Drug uptake [8]: Active
Drug uptake [9]: Active
Compound: COC(=O)CCC(=O)CNC(=O)c1ccc(CN2/C(=C/C=C3\CCCC(/C=C/C4=[N+](Cc5ccc(C(=O)NCC(=O)CCC(=O)OC)cc5)c5ccccc5C4(C)C)=C3Cl)C(C)(C)c3ccccc32)cc1.[Br-]

Drug uptake [6]: Active
Drug uptake [3]: Active
Ratio [10]: > 5
logD [1]: 4.3
Drug uptake [7]: Active
logP [2]: 6.18
Drug uptake [8]: Active
Drug uptake [9]: Active
Compound: COC(=O)CNC(=O)c1ccc(OCCC[N+]2=C(/C=C/C3=C(Cl)C(=C/C=C4/N(Cc5ccc(C(=O)O)cc5)c5ccccc5C4(C)C)/CCC3)C(C)(C)c3ccccc32)cc1.[Br-]

Drug uptake [3]: Active
logD [1]: 5.51
logP [2]: 7.45
Compound: COC(=O)CNC(=O)c1ccc(OCCCN2/C(=C/C=C3\CCCC(/C=C/C4=[N+](CCCOc5ccc(C(=O)NCC(=O)OC)cc5)c5ccc6ccccc6c5C4(C)C)=C3Cl)C(C)(C)c3c2ccc2ccccc32)cc1.[Br-]

Drug uptake [6]: Active
Drug uptake [3]: Active
Ratio [10]: > 5
logD [1]: 4.23
Drug uptake [7]: Active
logP [2]: 5.9
solubility [4]: 170 µg/mL
Drug uptake [8]: Active
Drug uptake [9]: Active
Compound: CC1(C)C(/C=C/C2=C(Cl)C(=C/C=C3/N(CCCCCC(=O)O)c4ccccc4C3(C)C)/CCC2)=[N+](CCCOc2ccc(C(=O)O)cc2)c2ccccc21.[Br-]

Drug uptake [3]: Active
logD [1]: 4.74
logP [2]: 6.14
Compound: Cc1ccc2c(c1)C(C)(C)C(/C=C/C1=C(Cl)C(=C/C=C3/N(Cc4ccc(C(=O)O)cc4)c4ccc(C)cc4C3(C)C)/CCC1)=[N+]2Cc1ccc(C(=O)O)cc1.[Br-]

logD [1]: 3.73
logP [2]: 7.27
Compound: CC1(C)C(/C=C/C2=C(Cl)C(=C/C=C3/N(CCOc4ccccc4C(=O)O)c4ccc5ccccc5c4C3(C)C)/CCC2)=[N+](CCOc2ccccc2C(=O)O)c2ccc3ccccc3c21

logD [1]: 3.59
logP [2]: 7.06
solubility [4]: 170 µg/mL
Compound: CC1(C)C(/C=C/C=C/C=C/C=C2/N(Cc3ccc(C(=O)O)cc3)c3ccc4ccccc4c3C2(C)C)=[N+](Cc2ccc(C(=O)O)cc2)c2ccc3ccccc3c21.[Br-]

logD [1]: 3.92
logP [2]: 5.36
Compound: COC(=O)C(C)NC(=O)CCN1/C(=C/C=C2\CCCC(/C=C/C3=[N+](CCC(=O)NC(C)C(=O)OC)c4ccccc4C3(C)C)=C2Cl)C(C)(C)c2ccccc21 (centres undefined)

Drug uptake [3]: Active
logD [1]: 4.02
logP [2]: 6.41
Compound: Cc1ccc2c(c1)C(C)(C)C(/C=C/C1=C(Cl)C(=C/C=C3/N(CCCOc4ccc(C(=O)O)cc4)c4ccc(C)cc4C3(C)C)/CCC1)=[N+]2CCCOc1ccc(C(=O)O)cc1.[Br-]

logD [1]: 3.39
logP [2]: 6.18
Compound: COC(=O)CNC(=O)CCN1/C(=C/C=C2\CCCC(/C=C/C3=[N+](CCC(=O)NCC(=O)OC)c4ccc5ccccc5c4C3(C)C)=C2Cl)C(C)(C)c2c1ccc1ccccc21

Drug uptake [6]: Not_active
Drug uptake [13]: Active
Drug uptake [3]: Active
Ratio [10]: > 5
logD [1]: 4.63
Drug uptake [19]: Active
Drug uptake [20]: Active
Drug uptake [7]: Not_active
logP [2]: 6.21
solubility [4]: 170 µg/mL
remaining at 1 h [5]: 89.4%
Drug uptake [8]: Not_active
Drug uptake [9]: Not_active
Stability [29]: Stable
Compound: CCCN1/C(=C/C=C2\CCCC(/C=C/C3=[N+](CCCOc4ccc(C(=O)O)cc4)c4ccccc4C3(C)C)=C2Cl)C(C)(C)c2ccccc21.[Br-]
Activity [11]: Active
TGI (NCI-H250): Active
Activity [12]: Active
Activity [14]: Active
Activity [15]: Active
Activity [16]: Active
Activity [17]: Active
Activity [18]: Active
Activity [21]: Active
Activity [22]: Active
Activity [23]: Active
Activity [24]: Active
Activity (NIH3T3): > 80%
Activity [25]: Active
Activity [26]: Active
Activity (NCI-H226): Active
Activity [27]: Active
Activity [28]: Active
Activity [30]: Active
Activity [31]: Active
Activity [32]: Active
Activity [33]: Non-toxic
Activity [34]: Active
Activity [35]: Active
Activity [36]: Active
Activity [37]: Active
Activity [38]: Non-toxic

Drug uptake [3]: Active
logD [1]: 5.28
logP [2]: 7.21
Compound: COC(=O)CCC(=O)CNC(=O)c1ccc(CN2/C(=C/C=C3\CCCC(/C=C/C4=[N+](Cc5ccc(C(=O)NCC(=O)CCC(=O)OC)cc5)c5ccc6ccccc6c5C4(C)C)=C3Cl)C(C)(C)c3c2ccc2ccccc32)cc1.[Br-]
